Measurements: ChEMBL document CHEMBL1255481, “The M230L nonnucleoside reverse transcriptase inhibitor resistance mutation in HIV-1 reverse transcriptase impairs enzymatic function and viral replicative capacity” (Antimicrob Agents Chemother, 2010)

What was measured:
[1] = test system: Human immunodeficiency virus 1; assay: Antiviral activity against HIV 1 subtype B harboring reverse transcriptase M230L mutant infected in human TZM-bl cells assessed as inhibition of viral growth by luciferase reporter gene assay; format: functional, organism-based; conditions: Human immunodeficiency virus 1, subtype B
[2] = molecular target: T1, Human immunodeficiency virus type 1 reverse transcriptase (Human immunodeficiency virus 1, UniProt Q72547); assay: Inhibition of DNA-dependent DNA polymerase activity of wild type HIV1 subtype B reverse transcriptase by gel-based primer extension assay
[3] = test system: Human immunodeficiency virus 1; assay: Antiviral activity against HIV 1 subtype B harboring wild type reverse transcriptase infected in human TZM-bl cells assessed as inhibition of viral growth by luciferase reporter gene assay; format: functional, organism-based; conditions: Human immunodeficiency virus 1, subtype B
[4] = molecular target: T2, Human immunodeficiency virus type 1 reverse transcriptase (Human immunodeficiency virus 1, UniProt Q72547, M230L); assay: Inhibition of RNA-dependent DNA polymerase activity of HIV1 subtype B reverse transcriptase M230L mutant by filter-based filtration assay
[5] = test system: Human immunodeficiency virus 1; assay: Selectivity ratio of EC50 for antiviral activity against HIV 1 subtype B harboring reverse transcriptase M230L mutant to EC50 for antiviral activity against HIV 1 subtype B harboring wild type reverse transcriptase; format: functional
[6] = molecular target: T1, Human immunodeficiency virus type 1 reverse transcriptase; assay: Inhibition of RNA-dependent DNA polymerase activity of wild type HIV1 subtype B reverse transcriptase by filter-based filtration assay
[7] = test system: Human immunodeficiency virus 1; assay: Selectivity ratio of IC50 for DNA-dependent DNA polymerase activity of HIV1 subtype B reverse transcriptase M230L mutant to IC50 for DNA-dependent DNA polymerase activity of wild type HIV1 subtype B reverse transcriptase
[8] = molecular target: T2, Human immunodeficiency virus type 1 reverse transcriptase; assay: Inhibition of DNA-dependent DNA polymerase activity of HIV1 subtype B reverse transcriptase M230L mutant by gel-based primer extension assay
[9] = test system: Human immunodeficiency virus 1; assay: Selectivity ratio of IC50 for RNA-dependent DNA polymerase activity of HIV1 subtype B reverse transcriptase M230L mutant to IC50 for RNA-dependent DNA polymerase activity of wild type HIV1 subtype B reverse transcriptase

Row | Compound | EC50 [1] [nM] | IC50 [2] [nM] | EC50 [3] [nM] | IC50 [4] [nM] | Selectivity ratio [5] | IC50 [6] [nM] | Selectivity ratio [7] | IC50 [8] [nM] | Selectivity ratio [9]
1 | Cc1cc(C)c(Nc2ccnc(Nc3ccc(C#N)cc3)n2)c(C)c1 [DAPIVIRINE] | 5.8 | 131 | 0.91 | 172 | 6.4 | 19 | 9.9 | 1290 | 9.1
2 | O=C1Nc2ccc(Cl)cc2[C@@](C#CC2CC2)(C(F)(F)F)O1 [EFAVIRENZ] | 64.3 | – | 3.57 | – | – | – | – | – | –
3 | Cc1cc(C#N)cc(C)c1Oc1nc(Nc2ccc(C#N)cc2)nc(N)c1Br [ETRAVIRINE] | 7.27 | – | 1.25 | – | – | – | – | – | –
4 | Cc1ccnc2c1NC(=O)c1cccnc1N2C1CC1 [NEVIRAPINE] | 2690 | – | 163 | – | – | – | – | – | –
